Patent US10036018B2, “Compositions and methods for treating cachexia” (priority 2014, dated 2018)

Experiments:
C2C12 myoblasts = experiment: Trypan blue cell death of C2C12 cells treated with cytokines; assay type: cell-based, murine; details: C2C12, 24 h, cytokines at 5 ng/mL
Procedure: FIG. 5C is a graph depicting cell death assessed by trypan blue dye staining performed on C2C12 cells that were treated for 24 h with individual cytokines or a mixture (Cocktail) of IL-1, IL-6, TNFα, and IFNγ (all at 5 ng/mL). As a negative control, cells were treated with serum-free medium.
Trypan Blue Staining. Trypan blue dye was purchased from Gibco (15250-061), and staining was performed following the manufacturer's protocol. Dead cells are blue in color under the microscope and were counted using a hemocytometer.

phospho-JNK = experiment: Western blot of treated C2C12 extracts, phospho-JNK; assay type: cell-based, murine; details: proliferating myoblasts, Western blot time course
Procedure: (§1) FIG. 9B is an image of a Western blot on extracts of C2C12 cells that had been treated with either LLC-derived MVs (Upper) or synthetic miR-21 (Lower, using miR-16 as control), which were probed with antibodies against phospho-JNK, phospho-c-jun, and phospho-p38 at different times, as indicated.
(§2) Western Blot. Western blots were performed as previously described (2). Antibodies used and their dilutions are listed: p-JNK (Cell Signaling Technology, 1:2,000), p-c-Jun (Cell Signaling Technology, 1:1,000), p-p38 (Cell Signaling Technology, 1:2,000), and vinculin (Abeam, 1:3,000).

phospho-p38 = experiment: Western blot of treated C2C12 extracts, phospho-p38; assay type: cell-based, murine; details: proliferating myoblasts, Western blot time course
Procedure: as §1, §2

[1] = test system: TLR7−/− primary myoblasts; experiment: Cell viability (cell counter) of TLR7-/- primary myoblasts treated with Dotap formulations of miRNAs; assay type: cell-based, mice; details: Dotap formulation, 24 h
Procedure: (§3) FIG. 4A is a graph depicting cell viability assessed with a cell counter for TLR7+/+ and TLR7−/− primary myoblasts that were treated with Dotap formulations of miR-16 and miR-21 for 24 h. As negative control, cells were incubated with Dotap alone. Experiments were performed in quadruplicate. Results are presented as average±SEM. *P≤0.05; **P≤0.01; ***P≤0.001.
(§4) MV Treatment. C2C12 immortalized myoblasts or primary myoblasts isolated from mice were treated with MVs at indicated times. Cell numbers of myoblasts were counted on a hemocytometer.
(§5) Myoblast Isolation and Culture. Primary myoblasts were isolated as previously described (2) and preplated twice, using noncoated tissue culture dishes, and then cultured either on a matrigelcoated 96-well plate for MTS assay reading at indicated times or on a matrigel-coated 12-well plate for protein and RNA analysis.
Mice. Cachexia in the LLC model were induced as previously described (2). TLR7−/− mice were obtained from Jackson Laboratory. Wild-type C57B6 male mice at the same age and weight were used as TLR7+/+ controls. All genotypes were determined by PCR, using tail DNA. All procedures used in this study complied with federal guidelines and the institutional policies of the Ohio State University Animal Care and Use Committee.

phospho-c-jun = experiment: Western blot of treated C2C12 extracts, phospho-c-jun; assay type: cell-based, murine; details: proliferating myoblasts, Western blot time course
Procedure: as §1, §2

[2] = test system: TLR7+/+ primary myoblasts; experiment: Cell viability (cell counter) of TLR7+/+ primary myoblasts treated with Dotap formulations of miRNAs; assay type: cell-based, mice; details: Dotap formulation, 24 h
Procedure: as §3, §4, §5

## IFN-γ: proinflammatory cytokine
C2C12 myoblasts
  effect on the viability of proliferating murine C2C12 myoblasts: little or no effect

## IL-1β: proinflammatory cytokine
C2C12 myoblasts
  effect on the viability of proliferating murine C2C12 myoblasts: little or no effect

## IL-6: proinflammatory cytokine
C2C12 myoblasts
  effect on the viability of proliferating murine C2C12 myoblasts: little or no effect

## TNFα
C2C12 myoblasts
  effect on the viability of proliferating murine C2C12 myoblasts: little or no effect

## UAGCUUAUCAGACUGAUGUUGA [miR-21]
phospho-JNK
  JNK activation: transiently induced
phospho-p38
  p38 activity: no significant change
[1]
  cell death on exogenous addition of miRNA: significantly blunted
[1]; listed as miR21
  cell death on exogenous addition of miRNA: does not completely rescue
phospho-c-jun
  c-JUN activation: transiently induced
[2]
  cell death on exogenous addition of miRNA: induced pronounced cell death
